Tests used:
E. coli = test: Growth curve study, E. coli; assay type: cell-based, Escherichia coli; conditions: for Bacterial growth of E. coli at 2MIC: highest concentration tested (2MIC), up to 48 h; for Lag phase (delay in bacterial growth), E. coli: lowest concentration evaluated (MIC/2)
Method: (§1) To further examine the inhibitory effect of the moderately active compounds 1a and 2a on the growth of the six bacterial strains tested, growth kinetic studies were performed. Thus, the six bacterial strains were exposed to three different concentrations of the test compounds using the MIC values (Table 4) as reference (2MIC, MIC, and MIC/2), while untreated cells were used as negative control. The bacterial growth was recorded by measuring the absorbance at several time points.
(§2) A stock solution of selected compounds 1a and 2a was prepared in DMSO, and different concentrations equivalent to 2MIC, MIC, and MIC/2 in TSB of each compound were dispensed into a 96-well plate with a final volume of 100 µL, while only TSB was added for the control wells. Then, 100 µL of a diluted suspension of bacterial cells in TSB with an optical density of 0.125 measured at 600 nm (inoculum of approximately 10^5 CFU/mL) was added to each well, and the incubation was monitored by spectrophotometric measurements. The absorbance was recorded at 600 nm against time (h) at predetermined periods on a microplate reader. The experiments were performed in triplicate.

S. epidermidis = test: Growth curve study, S. epidermidis; assay type: cell-based, Staphylococcus epidermidis; conditions: for Bacterial growth of S. epidermidis at sub-MIC concentration: 6.25 µg/mL; for Bacterial growth of S. epidermidis at 2MIC: highest concentration tested (2MIC), up to 48 h
Method: as §1, §2

S. faecalis = test: Growth curve study, S. faecalis; assay type: cell-based, Streptococcus faecalis; conditions: for Bacterial growth of S. faecalis at 2MIC: highest concentration tested (2MIC), up to 48 h
Method: as §1, §2

S. aureus = test: Growth curve study, S. aureus; assay type: cell-based, Staphylococcus aureus; conditions: for Bacterial growth of S. aureus at 2MIC: highest concentration tested (2MIC), up to 48 h
Method: as §1, §2

K. pneumoniae = test: Growth curve study, K. pneumoniae; assay type: cell-based, Klebsiella pneumoniae; conditions: for Bacterial growth of K. pneumoniae at 2MIC: highest concentration tested (2MIC), up to 48 h
Method: as §1, §2

C. freundii = test: Growth curve study, C. freundii; assay type: cell-based, Citrobacter freundii; conditions: for Bacterial growth of C. freundii at 2MIC: highest concentration tested (2MIC), up to 48 h
Method: as §1, §2

[1] = DPPH radical scavenging assay; conditions: 0.06 mg/mL, after two hours
Method: Oxidative stress has been associated with a wide range of pathologies. […] Measurements were performed at 2 concentrations and recorded at eight different time points. Ascorbic acid (Asc) and Trolox were used as positive controls. The results are presented as the percentage of DPPH radical scavenging activity and are outlined in Figure 2.
The antioxidant activity of the selenocompounds was determined by the DPPH assay following a procedure previously published by our group. Briefly, the compounds were dissolved in absolute methanol at a concentration of 1 mg/mL, and a dilution was prepared. Asc and Trolox were used as positive controls. A methanolic solution (100 µM) of DPPH˙ was made daily and […]. The stability of the radical through the time of analysis was checked by absorbance measurements of this solution. A volume of 100 µL of DPPH in methanol was added to 100 µL of the compounds’ solutions to a final concentration of 0.03 or 0.06 mg/mL, and the decolorization of the purple radical to the yellowish reduced form was followed by recording the absorbance at 517 nm. Determinations were recorded at eight different time intervals from 0 to 120 min on a BioTeck PowerWave XS spectrophotometer and the data were collected using KCJunior software. All the measurements were carried out in triplicate. […]

[2] = lowest concentration tested, 12.5 µg/mL

SMILES | melting point [°C] | Bacterial growth of E. coli at 2MIC (E. coli) | Lag phase (delay in bacterial growth), E. coli (E. coli) [h] | Bacterial growth of S. epidermidis at sub-MIC concentration (S. epidermidis) | Bacterial growth of S. epidermidis at 2MIC (S. epidermidis) | Bacterial growth of S. faecalis at 2MIC (S. faecalis) | Bacterial growth of S. faecalis at MIC/2 (S. faecalis; [2]) | Delay in the bacterial growth, S. aureus (S. aureus; MIC concentration (25 µg/mL)) [h] | Bacterial growth of S. aureus at 2MIC (S. aureus) | Bacterial growth of S. aureus at MIC/2 (S. aureus; [2]) | Log phase before bacterial growth, K. pneumoniae (K. pneumoniae; 25 µg/mL) [h] | Log phase before bacterial growth, K. pneumoniae (K. pneumoniae; 50 µg/mL) [h] | Bacterial growth of K. pneumoniae at 2MIC (K. pneumoniae) | Bacterial growth of C. freundii at 2MIC (C. freundii) | Log phase, C. freundii (C. freundii; lowest concentration (50 µg/mL)) [h] | Bacterial growth of K. pneumoniae at the concentrations tested (K. pneumoniae; 2MIC, MIC and MIC/2) | DPPH radical scavenging activity [1] [%]
N#C[Se]Cc1ccc2c(c1)OCO2 [Compound 2a, 5-(Selenocyanatomethyl)benzo[d][1,3]dioxole] | 71 to 73 | no bacterial growth was detected | 10 | a delay could be observed | no bacterial growth was detected | no bacterial growth was detected | exponential growth of bacteria was observed | 44 | no bacterial growth was detected | exponential growth of bacteria was observed | 28 | 42 | no bacterial growth was detected | no bacterial growth was detected | 43 |  | 
N#C[Se]C/C=C/c1ccccc1 [Compound 1a, (E)-(3-selenocyanatoprop-1-en-1-yl)benzene] | 87 to 89 | no bacterial growth was detected | 41 | a delay could be observed | no bacterial growth was detected | no bacterial growth was detected |  |  | no bacterial growth was detected |  |  |  | no bacterial growth was detected | no bacterial growth was detected |  | no growth was detected | 
O=C(CC[Se]CC=Cc1ccccc1)[c-]1cccc1.[Fe+2].c1cc[cH-]c1 [Compound 1c, 3-(Cinnamylselanyl)-1-ferrocenylpropan-1-one] |  |  |  |  |  |  |  |  |  |  |  |  |  |  |  |  | 72.6
O=C(CC[Se]Cc1ccc2c(c1)OCO2)[c-]1cccc1.[Fe+2].c1cc[cH-]c1 [Compound 2c, 3-((Benzo[d][1,3]dioxol-5-ylmethyl)selanyl)-1-ferrocenylpropan-1-one] |  |  |  |  |  |  |  |  |  |  |  |  |  |  |  |  | 76.1
